We go through two molecules from paper PMC9001717, “Tyrosine 121 moves revealing a ligandable pocket that couples catalysis to ATP-binding in serine racemase” (Communications Biology, 2022).

For one experiment, the system named is Yeast SR. Further details: method as in ref 4 (a number printed in a supplementary file, which may have a reference list of its own: not looked up in the article's list). Conditions: ref 4; cited from earlier work.
In the next experiment the test system is human SR. Further details: method as in ref 57,58 (a number printed in a supplementary file, which may have a reference list of its own: not looked up in the article's list). Conditions: upon addition of ATP; cited from earlier work.
Experiment [1] has as its target T1, human SR (hSR) (Homo sapiens, UniProt Q9GZT4, C2D/C6D).
T1 construct: (His)6 (C); made in house; host or cells: E. coli (BL21-CodonPlus (DE3)-RIL for the mutants; the wild type is only 'as described[33]')
T1 sequence (Q9GZT4 1-340 C2D/C6D): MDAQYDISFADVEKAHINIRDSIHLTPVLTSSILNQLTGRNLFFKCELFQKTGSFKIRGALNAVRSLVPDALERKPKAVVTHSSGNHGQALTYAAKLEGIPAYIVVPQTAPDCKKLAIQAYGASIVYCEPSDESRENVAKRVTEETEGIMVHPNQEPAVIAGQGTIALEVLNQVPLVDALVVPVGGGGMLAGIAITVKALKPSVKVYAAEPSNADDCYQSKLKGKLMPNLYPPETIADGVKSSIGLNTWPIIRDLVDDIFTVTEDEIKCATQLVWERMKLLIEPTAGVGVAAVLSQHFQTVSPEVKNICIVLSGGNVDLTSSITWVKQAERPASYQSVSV
The experiment is described as follows: Thermal denaturation assay. The class given is binding. The method, then:
The melting temperature (Tm) of SR was determined in the presence and absence of malonate (disodium salt) and 1 mM ATP (disodium salt, Fisher) in a buffer containing 100 mM CHES pH 8.5, 1 mM MgCl2, and 10 µM PLP. The reaction mixture was prepared in 96-well plates containing final concentrations of 2 µM SR, 5X SYPRO Orange dye (from 5000X concentrate, ThermoFisher), and a 6-point 1:3 dilution series of malonate (0–1 mM). Each condition was assessed with and without 1 mM ATP in the buffer. Thermal denaturation analysis was performed in triplicate by transferring 10 µL reaction mixture to 384-well plates for use in a BioRad CFX384 Touch Real-Time PCR Detection System. Programme: 10 min hold at 25 °C, plate read, increase by increments of 0.5 °C up to 95 °C; each step accompanied by a 15 s hold and plate read. Data were analysed using GraphPad Prism.

A further experiment concerns hSR. Details: method as in PMID 25331425. Particulars: cited from earlier work.
Another experiment relates to mouse SR. Further details: method as in PMID 28533113. Particulars: cited from earlier work.
The target of experiment [2] is T1, human SR (hSR). Further details: method as in PMID 18812225. Conditions: read-out: inhibition constant (Ki); cited from earlier work.
Experiment [3] concerns the target T2, human serine racemase (hSR) WT (Homo sapiens, UniProt Q9GZT4, C2D/C6D).
T2 construct: (His)6 (C); made in house; host or cells: E. coli (BL21-CodonPlus (DE3)-RIL for the mutants; the wild type is only 'as described[33]')
T2 sequence (Q9GZT4 1-340 C2D/C6D): T1 sequence (Q9GZT4 1-340 C2D/C6D)
The experiment is described as follows: L- to D-Ser racemisation coupled luminescence assay, wild-type hSR. Format: biochemical. Particulars: malonate used as control compound. The method, then:
The ability of compounds to inhibit the L to D-Ser racemisation activity of hSR was measured in a coupled assay. In the assay, hSR converts L-Ser to D-Ser. The D-Ser is then converted into pyruvate, ammonia and hydrogen peroxide using D-amino acid oxidase. Next, the hydrogen peroxide reacts with luminol in the presence of horseradish peroxidase, producing luminescent by-product. In the assay malonate was used as a control compound and gave 100% inhibition – results for XChem compounds are shown in Supplementary Table 4 and in supplementary Fig. 12. The activity of the wild-type and the three Y121 mutants, Y121F, Y121A and Y121G was measured at six ATP concentrations (1 mM, 0.5 mM, 0.25 mM, 0.125 mM, 0.062 mM and 0.031 mM) as shown in supplementary Fig. 11.
The inhibition of hSR activity was measured using a luminescence assay in a 384 well plate (flat bottom white, Corning). Initially, each well contained 100 mM Tris pH 8.5, 0.05% Pluronic f-127 (VWR), 1 mM MgCl2, 1 mM ATP (disodium salt, Fisher), 10 µM PLP, 0.3 nM hSR, 2 mM L-serine and compound at 16.67 mM to 0.0077 mM (see supplementary Fig. 12) and had 16.7% DMSO concentration. The plate was incubated at RT with shaking for 30 min. After this, the reaction was stopped using a detection mix. The final well concentration was 100 mM Tris pH 8.5, 0.05% Pluronic f-127 (VWR), 1 mM EDTA (Fisher), 0.25 U/mL horseradish peroxidase, 0.5 U/mL D-amino acid oxidase and 25 µM Luminol (Insight Biotechnology) and 8.4% DMSO. The plate was left to incubate covered and shaking for 10 min. The plate was then read using a PHERAstar (BMG) plate reader. For the ATP dependant activity data, the method was kept the same, except for varying the concentration of ATP.
The relative light units read (x) on the PHERAstar were converted into percentage inhibition (PI) using the equation: PI=100x[1−(x−Min)/(Max−Min)] where min is negative control (100% inhibition) and max is the positive control (no inhibition). The IC50s were calculated with GraphPad (Prism 8.3.1, Graphpad Software, San Diego CA).

Experiment [4] deals with SR. Particulars: cited from earlier work.
Experiment [5] has as its system SR. Further details: method as in supplementary refs 2, 11-32. Conditions: literature summary; ref supplementary refs 2, 11-32; cited from earlier work.
[6] abbreviates: 1 mM of the additive alone, reference Tm 47.3 °C.

Like-named read-outs stand apart in the source and are kept apart here. Some results are limits rather than exact numbers.

As for `Nc1ncnc2c1ncn2[C@@H]1O[C@H](COP(=O)(O)OP(=O)(O)OP(=O)(O)O)[C@@H](O)[C@H]1O` [ATP, Adenosine triphosphate], the “increase of both reactions (racemisation and elimination)” value in the experiment with Yeast SR is “less than 2 fold”. Further, in the experiment with human SR, the “increase of D-serine elimination” value was 4 fold, the “increase of L-serine elimination” value is on record as 31 fold and the “increase of L-serine racemisation” value is about 2 fold. At human SR (hSR) [1] (setting [6]), the shift in melting temperature (ΔTm) was −1.3 °C. The “increase of hSR affinity for malonate” value in the experiment on hSR (effect of ATP on malonate binding to the catalytic site) is “at least 9 fold”.
With `O=C(O)CC(=O)O` [malonate], the IC50 in the experiment with mouse SR is 770 µM; with SR [4] (ref 48), 67 µM; in the experiment on SR [4] (ref 49), 449 µM. Further, the ΔTm result was “+3.7 °C” at human SR (hSR) [1] (1 mM ATP and 1 mM malonate together); “+1.2 °C” on human SR (hSR) [1] (setting [6]). In addition, at human SR (hSR) [1] (with 1 mM ATP), the “malonate concentration required for the cooperative stabilising effect of ATP and malonate” value is given as over 0.1 mM. Also, the Ki was 33 µM at human SR (hSR) [2] and under 100 µM at SR [4] (review of SR inhibitors). In addition, the “inhibition by control compound” value in [3] amounted to 100%. In addition, the “increase of the affinity of hSR for ATP” value with hSR (allosteric effect of malonate on the ATP site) is given as 100 fold. Further, in the experiment on SR [5], the Inhibition mode entry is “Competitive”.

As usually defined, the ΔTm is the change in melting temperature against a reference sample. As a reminder, the IC50 is the concentration needed to halve the response being measured. In general, Ki refers to a measure of affinity in units of concentration, obtained from inhibition or displacement.
